Assays:
[1] = target: T1, Listeria monocytogenes PssE (Lmo0531), GGDEF domain (residues 107-285) containing the I-site, as MBP fusion (MBP::GGDEFpssE) (Listeria monocytogenes, UniProt Q8Y9J6); assay: Equilibrium dialysis of c-di-GMP binding to the PssE receptor (MBP-GGDEFpssE)
T1 construct: equilibrium dialysis
Source text: FIGS. 5A-5B: In vitro assay of c-di-GMP binding by the PssE receptor. […] The GGDEF domain of PssE (residues 107-285) (“GGDEF” disclosed as SEQ ID NO: 3) containing the putative I-site was fused downstream of MBP, MBP::GGDEFpssE (“GGDEF” disclosed as SEQ ID NO: 3), and used in c-di-GMP binding assays. […] Shown is the dependence of the ratio of bound cdi-GMP per protein in the dialysis chamber, where protein alone was loaded, versus concentration of free c-di-GMP at equilibrium.
(§1) To test the prediction that the PssE protein acts as a c-di-GMP receptor, its GGDEF domain (“GGDEF” disclosed as SEQ ID NO: 3) containing the I-site as an MBP fusion (MBP-GGDEFpssE) (“GGDEF” disclosed as SEQ ID NO: 3) was overexpressed, and this protein was purified (FIG. 5A) and analyzed for its ability to bind c-di-GMP in vitro using equilibrium dialysis. […] This value falls within the range of physiologically relevant intracellular c-di-GMP concentrations measured in other bacteria that are believed to be in the submicromolar to low micromolar range. […] Therefore, PssE is a bonafide c-di-GMP receptor that is predicted to transfer the c-di-GMP signal to activate synthesis of the listerial Pss EPS.
For purification of MBP::PdeC and MBP::GGDEFpssE fusions (“GGDEF” disclosed as SEQ ID NO: 3), IPTG (final concentration, 0.2 mM) was added to exponentially (A600, 0.6-0.8) growing E. coli DH5α containing appropriate plasmids. After 2-h induction, cells were collected by centrifugation. Cell pellets were resuspended in a buffer containing 200 mM NaCl, 0.5 mM EDTA, 5 mM MgCl2, 20 mM Tris-HCl (pH 7.6), and 5% glycerol that also contained protease inhibitors. […]
(§2) Equilibrium dialysis experiments were performed as previously described. […] The nucleotide concentrations were quantified by HPLC. Binding constants were calculated by the GraphPad Prism software, version 4.03 (GraphPad Software, San Diego, Calif.) using a nonlinear regression model.

[2] = target: MBP-GGDEFpssE; assay: Equilibrium dialysis assay of c-di-GMP binding by the PssE receptor; set-up: species or system L. monocytogenes
Source text: as §1
For purification of MBP::PdeC and MBP::GGDEFpssE fusions (“GGDEF” disclosed as SEQ ID NO: 3), IPTG (final concentration, 0.2 mM) was added to exponentially (A600, 0.6-0.8) growing E. coli DH5α containing appropriate plasmids. After 2-h induction, cells were collected by centrifugation. […]
as §2

[3] = test system: L. monocytogenes; format: cell-based; conditions: hydrogen peroxide 200 mM, benzalkonium chloride 100 ppm; 10 min, room temperature
Method: Here, the role of L. monocytogenes EPS in providing tolerance to disinfection and desiccation was evaluated. […] To distinguish between the contribution of EPS versus EPS-independent c-di-GMP-responsive agents, included in the tests were the ΔpdeB/C/D ΔpssC mutant characterized by elevated intracellular c-di-GMP levels but defective in EPS production.
Cultures were grown in HTM with 3% glucose at 37° C. for 24 h, at which point small uniform clumps are formed by the ΔpdeB/C/D strain. Aliquots (250 μl; 10^8 cfu/ml) of these cultures were mixed with disinfectants at 1:1 vol ratios in small glass tubes that also contained 0.1 g of acid washed glass beads (Sigma Life Sciences). Following a 10-min exposure to disinfectants at room temperature, D/E neutralizing broth (500 μl; Difco) was added. Samples were vigorously vortexed (for 5 min) and clumps of the ΔpdeB/C/D strain were dispersed due to the action of the glass beads. Serial dilutions were plated on BHI agar and colonies were counted following a 48-h incubation at 37° C.

[4] = Solubility of listerial EPS preparations; format: physicochemical
Source text: Considering that chitin, a polymer of β-1,4-linked N-acetylglucosamine, is also insoluble, but chitosan, which is obtained from chitin by N-deacetylation, is soluble in dilute acid, ManNAc-Gal EPS may also be made soluble by N-deacetylation. […] To identify the sugars belonging to the anomeric signals, a series of 2-D NMR spectra was acquired. COSY and TOCSY spectra were used to assign the proton chemical shifts, and an HSQC spectrum was obtained to assign the carbon chemical shifts of the monosaccharide residues present in EPS-N. The residues and their linkage positions were identified from the proton and carbon chemical shifts. A NOESY spectrum was used to determine the monosaccharide sequence. The spectra clearly identified one of the anomeric peaks as belonging to a terminal α-galactopyranose (α-Galp) residue (Table 3).
N-deacetylation was performed to obtain soluble EPS material for NMR studies. The insoluble EPS sample was suspended in 300 μl of 50% NaOH and heated to 80° C. for 1 h. After cooling to room temperature, the sample was diluted with 1 ml of water and acidified with glacial acetic acid (final pH˜4-5). The sample was dialyzed against running deionized water for 36 h using a 3,500 Da regenerated cellulose membrane and lyophilized. This material was designated ‘EPS-N’. EPS-N was dissolved in 5 ml of 0.4 M HCl and heated at 110° C. for 2 h for partial hydrolysis. […]

[5] = test system: ΔpdeB/C/D strain; assay: Cell aggregation assay with added recombinant protein (prevention of aggregation of the growing strain); format: cell-based, L. monocytogenes; conditions: added to inoculum, HTM/G, 30° C., 24 h
[6] = test system: washed aggregates of strain ΔpdeB/C/D; assay: Dispersal of preformed cell aggregates; format: cell-based, L. monocytogenes
[7] = Stability of PssZ hydrolytic activity on incubation; format: physicochemical; conditions: 3 day incubation at 30° C.
Source text: In addition to biosynthesis proteins, the ManNAc-Gal EPS-specific glycosylhydrolase was identified and characterized. PssZ belongs to the GH8 family, whose members cleave β1-4 linkages through an inverting mechanism wherein carboxylate containing amino acid residues (i.e., Glu and Asp) perform the hydrolysis of glycosidic bonds. A conserved Glu residue present in the presumed catalytic site of PssZ was identified to be important for hydrolytic activity of PssZ (FIG. 17). The PssZ E72Q mutation largely, but not completely, abolished hydrolytic activity. […] A similar observation was reported for BcsZ, i.e., no hydrolytic activity was detected on carboxymethylcellulose in solution, whereas activity was shown on an agar plate containing carboxymethylcellulose. […] Given its relative stability, PssZ can be used for dispersing listerial EPS aggregates in food storage or processing plants, which would make listeria more susceptible to disinfectants. According to the results observed, listerial EPS-embedded aggregates are several orders of magnitude more tolerant to commonly used disinfectants than planktonic cells.

[8] = Release of soluble carbohydrates from purified insoluble EPS (anthrone assay); format: biochemical, L. monocytogenes; conditions: 32 μg ml^−1 final concentration; ethanol precipitated EPS
Method: Next, purified insoluble ManNAc-Gal EPS was treated with PssZ and PssZ E72Q.
Total carbohydrates were determined using an anthrone assay. Dried EPS samples were transferred to 0.4 ml of water and mixed with an ethyl acetate solution containing anthrone reagent (2% w/v). Then, 1 ml of concentrated sulfuric acid was added to the mixture for color development. Samples were read at a wavelength of 620 nm, and glucose was used as a standard to estimate carbohydrate levels in the samples. Finally, dried EPS samples were sent to the Complex Carbohydrate Research Center (Athens, Ga., USA) for determination of monosaccharide composition, linkage, and NMR analysis.
The EPS hydrolytic activities of PssZ and PssZ E72Q were assessed by the ability of these proteins: (i) to prevent aggregation of the growing ΔpdeB/C/D strain in HTM/G medium, (ii) to disperse nongrowing ΔpdeB/C/D aggregates; and (iii) to release soluble carbohydrates from the purified insoluble EPS fibers. (i) Different concentrations (0.13 and 1.3 μg ml^−1) of the purified PssZ and PssZ E72Q proteins were added at the beginning of strain incubation. (ii) Aggregates were washed twice and resuspended in HTM salts-MOPS medium. Proteins were added to 1 ml of aggregate suspension (32 μg ml^−1, final concentration), and samples were incubated at 30° C. with gentle shaking. […]

T1 sequence (Q8Y9J6 entry or part of it): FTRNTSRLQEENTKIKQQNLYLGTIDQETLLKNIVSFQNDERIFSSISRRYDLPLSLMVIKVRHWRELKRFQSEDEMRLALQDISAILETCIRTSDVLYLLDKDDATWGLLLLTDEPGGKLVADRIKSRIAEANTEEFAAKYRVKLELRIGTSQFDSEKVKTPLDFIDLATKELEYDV

Nc1nc2c(ncn2[C@@H]2O[C@@H]3COP(=O)(O)O[C@H]4[C@@H](O)[C@H](n5cnc6c(=O)[nH]c(N)nc65)O[C@@H]4COP(=O)(O)O[C@H]3[C@H]2O)c(=O)[nH]1 [c-di-GMP, Cyclic dimeric GMP]
Kd [1]: 790 ± 170 nM
Bmax (binding capacity) ([1]; equilibrium dialysis, 25 h at room temperature): 2.03±0.12 μM c-di-GMP (μM protein)^−1
c-di-GMP molecules bound per PssE molecule at saturation ([1]; from Bmax): two
Kd ([2]; 25 h, room temperature, protein 20 μM, c-di-GMP 1 to 50 μM, read-out: apparent Kd): 790 ± 170 nM
binding capacity, Bmax ([2]; nonlinear regression): 2.03±0.12 μM c-di-GMP (μM protein)^−1

OO [hydrogen peroxide]
tolerance of ΔpdeB/C/D mutant compared to wild type or ΔpdeB/C/D ΔpssC mutant [3]: approximately 10^2 fold

benzalkonium chloride
tolerance of ΔpdeB/C/D mutant compared to wild type or ΔpdeB/C/D ΔpssC mutant [3]: approximately 10^2 fold

{4)-β-ManpNAc-(1-4)-[α-Galp-(1-6)]-β-ManpNAc-(1-} [ManNAc-Gal EPS]
solubility of native material [4]: completely insoluble

B1: PssZ: L. monocytogenes ManNAc-Gal EPS-specific glycosylhydrolase; SEQ ID NO: 1, purified fragment SEQ ID NO: 2 (protein)
chain: RPESKKTVSAPKETTPTSTSVQTYVKENYTAKNGLIMDYKNTEEPHYLAESIGLYMEYLVEVNDSKTFQKQVNHLEKYFIAEDNFIKWEATDSTTTNAIVDDFRITEALYQASEKFSFPSYKKMADKFLTNTKKYSAEQGVPVDFYDFVHKKKADTLHLSYLNIQAMQQINYRDKAYLPIQTINADPFFTEVFQNGQFKFADQKEVNMIDQMLIAIAYYDENGDIEPNFDNFLQTELASKGKIYARYQRETKKPSSENESTAVYAFLTQYFNKTNQAKNGKITKELLEKMDTSNPETTHFFDYINKEITLKK
modifications: His6 tag; Listeria monocytogenes
inhibition of cell aggregation ([5]; 0.13 μg ml^−1 final concentration): inhibited aggregation partially
inhibition of cell aggregation ([5]; 1.3 μg ml^−1 final concentration): inhibited it completely
dispersal of preformed cell aggregates ([6]; 32 μg ml^−1 final concentration, 6 h, 30° C., HTM salts without carbon source): dispersed cell aggregates almost completely
presence of reducing sugars in supernatants after treatment of cell aggregates ([6]; supernatants after treatment of cell aggregates): able to be detected
hydrolytic activity retained after incubation [7]: retains partial hydrolytic activity
hydrolytic activity on purified insoluble EPS (anthrone assay) [8]: did not detect any PssZ activity
